The values that follow come from publication PMC10704561, “Multi-Photon-Sensitive Chromophore for the Photorelease of Biologically Active Phenols” (ACS Chemical Neuroscience, 2023).

Values after ≈ are worked out from the molar mass of the structure shown. Where two headings read alike, the source gives them in different places.

One data set has as its system dLight 1.2. Briefly: Activation of dLight 1.2 on HCT 116 cells by photoreleased dopamine. Format: cell-based. The procedure:
(§1) HCT 116 cells were grown in Dulbecco’s […] medium (DMEM) supplemented with 10% fetal bovine serum (FBS), 1% nonessential amino acids (NEAA), and maintained at 37 °C and 5% CO2. HEK 293 cells stably expressing TRPV1 channels were grown as previously described.[62]
(§2) An Olympus FluoView FV1000MPE confocal microscope was employed to image and record cells plated onto 35 mm glass-bottom 4-well plates. A 488 nm ion laser excited the dopamine and serotonin sensors dLight 1.2 and GRAB5-HT, respectively, and Fluo-4 calcium dye. FluoView 10-ASW version 4.0 (Olympus), ImageJ-Fiji, and DeltaGraph (Red Rock Software) were used for capturing, extracting, and processing the collected data. Photoactivation was conducted with 405 nm (100% laser power, 1PE) or 720 nm (10% laser power, 24 mW, 2PE) light for MeO-CyHQ-O-DA and MeO-CyHQ-O-5HT or 740 nm (20% laser power, 15 mW light) for MeO-CyHQ-O-VNA and MeO-CyHQ-O-EG. Images were captured by using a 60× immersion lens.
(§3) HCT 116 cells were grown to 70% confluency on specialized glass-bottom plates for imaging. After 24 h, the cells were transfected (70% efficiency) with either dLight 1.2 or GRAB5-HT. Before imaging, the DMEM was discarded and the cells were washed twice with HBSS. HBSS (500 μL) was added per well for imaging. DMSO was used to dissolve the compounds CyHQ-O-DA, MeO-CyHQ-O-DA, and MeO-CyHQ-O-5HT to make 1 mM stock solutions. These were then added to the wells to obtain the desired final concentrations, keeping the DMSO concentration to less than 1%, which is tolerated by the cells. Control experiments included optimization of the response of the dLight 1.2 and GRAB5-HT sensors to the release of dopamine and serotonin, respectively, through exposure to different concentrations of CyHQ-O-DA, MeO-CyHQ-O-DA, and MeO-CyHQ-O-5HT at different durations of 405 nm light. Optimizations were conducted in a similar manner for activation through 2PE. Light dose–response curves were generated by applying a 405 nm light pulse for 1, 10, 50, 100, 200, 300, 400, 500, 600, 750, and 1000 ms at 50 frame intervals for CyHQ-O-DA, MeO-CyHQ-O-DA, and MeO-CyHQ-O-5HT.

Data set [1] can be described thus: Spontaneous hydrolysis in the dark. The class given is physicochemical. Particulars: 0.1 mM in KMOPS pH 7.2, dark, 7 days. The procedure:
A 0.1 mM solution of each compound was prepared in KMOPS buffer. For compounds 3d and 6c, 20% CH3CN was used as a cosolvent. The solutions were kept in the dark for 7 days, and the percentage of the starting materials was determined by periodic HPLC analysis (Supporting Information, HPLC Data).

Data set [2] is described as follows: UV-vis spectra and molar extinction coefficient in KMOPS buffer. The class given is physicochemical. The settings on record: 0.1 mM in KMOPS buffer, pH 7.2 (3d, 6c: 10 or 20% CH3CN added). As for the experimental part: A 100 μM solution of each protected phenol was prepared in KMOPS buffer (20% CH3CN was used as a cosolvent for compounds 3d and 6c). The UV–vis spectra of these solutions were recorded at between 250 and 500 nm. All of the measurements were repeated in triplicate, and the absorbance values were averaged. The Beer–Lambert law, ε = A(cl)^−1, was used for the calculation of ε values at λ = 365 nm, where A is the absorbance value measured at 365 nm, c is the concentration of the sample, and l is the cuvette length (1 cm). See the Supporting Information for the spectra.

Data set [3] is described as follows: Solubility in KMOPS buffer pH 7.2. Format: physicochemical. An excerpt:
The photochemical and photophysical properties were investigated in a simulated physiological buffer (KMOPS, pH 7.2) and compared with the literature data for CyHQ-O-DA (Table 1). […] For this derivative, 10% CH3CN in the buffer was used to ensure complete solubilization for the photochemistry experiments. The spontaneous hydrolysis in the dark was monitored over a period of 7 days and no significant hydrolysis was detected for any of the constructs. The molar absorptivity at the wavelength used for 1PE photolysis (ε365) ranged between 4800 and 5670 M^–1 cm^–1, in line with the values of most CyHQ-based PPGs.
The photochemical behavior of constructs 4–7c was investigated in KMOPS buffer at the concentration of 0.1 mM. Under these conditions, all compounds were soluble except for the VNA analogue 6c, which, because of the lipophilicity of the vanilloid, required 20% CH3CN for full solubilization. The stability toward hydrolysis in the dark was monitored over a week, and no significant decomposition was detected for any probe. All constructs were successfully photolyzed after light exposure, as shown in the time courses of the photolysis reactions (Figure 3). MeO-CyHQ constructs 4c, 6c, and 7c were photoactivated with excellent quantum efficiency and sensitivities, and good chemical yields were obtained by monitoring the appearance of the released bioeffector over the time course of the photoreaction (Table 1). […] We believe this effect is due to the presence of the thiophene ring, a well-known photoactive group,[51] which could act as an energy sink in the excited state and quench the photochemical reaction.

Data set [4] in a line: One-photon excitation (1PE) photolysis with 365 nm LED, HPLC quantification. Particulars: for t90% (time required to consume 90% of the starting material): 1PE 365 nm LED, lamp intensity differs per compound (Table S1). The class given is physicochemical. The procedure: A 0.1 mM solution (3 mL) of each protected phenol in KMOPS buffer (10 or 20% CH3CN was used as a cosolvent for 3d and 6c) was placed in a 3 mL quartz cuvette along with a stirring bar. The solution was irradiated with stirring using a 365 nm LED lamp (Cairn OptoLED Lite). At different time intervals, 80 μL aliquots of the solution were taken out and analyzed by uHPLC (Agilent 1290 Infinity series), monitoring the AUC at 320 nm (Supporting Information, HPLC Data). An external standard calibration method of quantification was used for the calibration of the samples. The experiments were repeated in sets of three. A gradient elution with a flux rate of 0.3 mL/min using a mobile phase comprising A = 0.1% trifluoroacetic acid in water and B = acetonitrile (starting from 5% B to 100% over 10 min and re-equilibrating to 5% B before the next run) was used for the separations. A comparison of the AUC with the calibration curves of the substrates (obtained from known concentration) determined the percentages of the remaining starting materials. The percentages of the remaining starting materials were plotted versus time. The time to 90% of decomposition of the substrate (t90% values) was obtained by fitting a single exponential decay curve to the data using DeltaGraph (Red Rock Software). The following equation was used to calculate the quantum yield (Φu) of each photolysis reaction:[42],[47],[56],[57] Φu = (I σ t90%)^−1, where I is the irradiation intensity (determined by potassium ferrioxalate actinometry and measured in Einstein cm^–2 s^–1),[58] σ is the decadic extinction coefficient (1000 × ε) at 365 nm, and t90% is the time required to consume 90% of the starting material. See Supporting Information Table S1 for the I, σ, and t90% data.

The subject of another data set is GRAB5-HT. Briefly: Activation of GRAB5-HT on HCT 116 cells by photoreleased serotonin. The class given is cell-based. As for the experimental part:
as §1, §2
as §3, with “Light dose–response curves were generated by applying a 405 nm light pulse for 1, 10, 50, 100, 200, 300, 400, 500, 600, 750, and 1000 ms at 50 frame intervals for CyHQ-O-DA, MeO-CyHQ-O-DA, and MeO-CyHQ-O-5HT.” left out

A further data set has as its target T1, TRPV1 channels (Homo sapiens, UniProt Q8NER1).
T1 construct: expressed in transfected cells
Briefly: TRPV1 activation on HEK 293 cells, Fluo-4 calcium imaging. Format: cell-based. As for the experimental part:
as §1
HEK 293 cells (stably expressing TRPV1 channels) were plated on a 35 mm glass-bottom dish (previously coated with poly-D-Lysine) a day before the experiment. A mixture of pluronic F-127 (Molecular Probes) and Fluo-4 AM (50 μg, Life Technologies) dissolved in dimethylsulfoxide (DMSO) (50 μL) was added to Hank’s balanced salt solution (HBSS) and sonicated for 5 min to prepare a solution containing a 0.02% final concentration of each. The solution was then loaded onto the cells growing in the 35 mm glass-bottom dish and incubated for 35–45 min in a humidified CO2 incubator (37 °C, 5% CO2). The cells were washed with HBSS (3 × 2 mL each) and subsequently maintained in HBSS during photoactivation experiments.
as §2
Solutions of MeO-CyHQ-O-VNA or MeO-CyHQ-O-EG were added to HEK 293 cells stably expressing TRPV1 channels and loaded with Fluo-4 in a 35 mm glass-bottom dish. An area near a cell was irradiated with a single short pulse of 405 nm laser light while imaging with the 488 nm laser. Similarly, VNA and eugenol were released through 2PE using 740 nm light.

The mark [5] stands for this setting: aqueous buffer, KMOPS buffer, pH 7.2, read-out: solubility.
Setting [6] is: HEK 293 cells expressing TRPV1, exposure to 740 nm light, data not shown.

T1 sequence (Q8NER1 whole entry): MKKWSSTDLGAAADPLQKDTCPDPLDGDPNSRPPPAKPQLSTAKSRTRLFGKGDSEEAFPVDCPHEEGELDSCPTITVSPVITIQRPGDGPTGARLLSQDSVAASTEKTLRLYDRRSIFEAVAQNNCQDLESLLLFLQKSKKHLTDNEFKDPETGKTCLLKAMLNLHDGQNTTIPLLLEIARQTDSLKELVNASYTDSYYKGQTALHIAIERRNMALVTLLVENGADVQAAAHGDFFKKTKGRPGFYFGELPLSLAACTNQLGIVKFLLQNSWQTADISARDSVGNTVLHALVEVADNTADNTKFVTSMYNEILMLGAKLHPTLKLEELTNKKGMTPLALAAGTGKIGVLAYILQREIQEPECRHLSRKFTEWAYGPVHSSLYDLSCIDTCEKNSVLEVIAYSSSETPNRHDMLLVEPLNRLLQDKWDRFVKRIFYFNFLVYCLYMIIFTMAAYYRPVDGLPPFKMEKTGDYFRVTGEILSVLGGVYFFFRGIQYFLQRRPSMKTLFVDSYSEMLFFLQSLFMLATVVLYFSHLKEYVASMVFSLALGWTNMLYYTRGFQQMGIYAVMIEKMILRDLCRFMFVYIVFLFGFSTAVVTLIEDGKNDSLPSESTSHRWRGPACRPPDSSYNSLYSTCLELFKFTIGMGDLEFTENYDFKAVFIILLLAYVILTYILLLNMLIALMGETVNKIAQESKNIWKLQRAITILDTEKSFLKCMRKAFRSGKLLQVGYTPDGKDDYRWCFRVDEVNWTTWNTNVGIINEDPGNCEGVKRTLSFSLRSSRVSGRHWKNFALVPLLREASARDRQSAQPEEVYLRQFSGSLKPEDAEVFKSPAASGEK

In the case of `COc1cc(COc2ccc(CCN)cc2O)nc2c(C#N)c(O)ccc12.O=C(O)C(F)(F)F` [3c, 2-(4-((8-Cyano-7-hydroxy-4-methoxyquinolin-2-yl)methoxy)-3-hydroxyphenyl)ethan-1-aminium 2,2,2-trifluoroacetate], in the data set with dLight 1.2 (10 μM, 10 ms flash of 405 nm light), the “dLight 1.2 response after photoactivation (1PE)” value is reported as “robust response”. Also, the “dLight 1.2 response after photoactivation (2PE)” value in the data set on dLight 1.2 (100 μM, 200 ms flash of 720 nm light) was “activated dLight 1.2”. For the same compound, the “τd (time constant of spontaneous hydrolysis in buffer in the dark at room temperature)” value in data set [1] is listed as “nh (No hydrolysis (<5% detected after 7 days))”. Also, in data set [2], the ε365 was 5670 M^–1 cm^–1 and the λmax came out at 354 nm. Moreover, in data set [3] (setting [5]), the solubility is more than 100 µM. Also, the “t90% (time required to consume 90% of the starting material)” value in data set [4] turned out to be 25.4 s. For the same compound, the “irradiation time to complete the 1PE photolysis reaction” value in data set [4] (365 nm) was “less than 1 min”.
In the case of `COc1cc(COc2ccc3[nH]cc(CCN)c3c2)nc2c(C#N)c(O)ccc12.O=C(O)C(F)(F)F` [4c, 2-(5-((8-Cyano-7-hydroxy-4-methoxyquinolin-2-yl)methoxy)-1H-indol-3-yl)ethan-1-aminium 2,2,2-trifluoroacetate], the “GRAB5-HT response after photoactivation (1PE)” value in the data set with GRAB5-HT (20 μM, 20 ms burst of 405 nm light) is “robust response”. For the same compound, the “GRAB5-HT response after photoactivation (2PE)” value in the data set on GRAB5-HT (200 μM, 200 ms pulse of 720 nm light) is “robust response”. The “light pulse duration at which the GRAB5-HT response plateaus” value with GRAB5-HT (405 nm (1PE), 20 μM) was “around 200 ms”. Also, the “τd (time constant of spontaneous hydrolysis in buffer in the dark at room temperature)” value in data set [1] is recorded as “nh (No hydrolysis (<5% detected after 7 days))”. In data set [2], this compound came in with a ε365 of 5400 M^–1 cm^–1 and a λmax of 355 nm. For the same compound, in data set [3] (setting [5]), the solubility was more than 100 µM. Further, the “t90% (time required to consume 90% of the starting material)” value in data set [4] was found to be 18.4 s.
In the case of `CCCCCCCCC(=O)NCc1ccc(OCc2cc(OC)c3ccc(O)c(C#N)c3n2)c(OC)c1` [6c, N-(4-((8-Cyano-7-hydroxy-4-methoxyquinolin-2-yl)methoxy)-3-methoxybenzyl)nonanamide], the “τd (time constant of spontaneous hydrolysis in buffer in the dark at room temperature)” value in data set [1] is on record as “nh (No hydrolysis (<5% detected after 7 days))”. In addition, the “Fluo-4 calcium response after photoactivation (1PE)” value at TRPV1 channels (HEK 293 cells expressing TRPV1, 2.5 μM, 50 ms pulse of 405 nm light) is given as “robust response”. In addition, the “Fluo-4 calcium response after photoactivation (2PE)” value (“Fluo-4 calcium response … (2PE)” for short) on TRPV1 channels (HEK 293 cells expressing TRPV1, 5 μM, 250 ms pulse of 740 nm light) is listed as “robust response”. Moreover, in data set [2], the ε365 turned out to be 3375 M^–1 cm^–1 and the λmax is listed as 341 nm. This compound returned a solubility in data set [3] (pH 7.2, aqueous buffer) of 77 µM (≈ 38.9 µg/mL). In data set [4], the “t90% (time required to consume 90% of the starting material)” value is on record as 23.1 s.
As to `C=CCc1ccc(OCc2cc(OC)c3ccc(O)c(C#N)c3n2)c(OC)c1` [7c, 2-((4-Allyl-2-methoxyphenoxy)methyl)-7-hydroxy-4-methoxyquinoline-8-carbonitrile], the “τd (time constant of spontaneous hydrolysis in buffer in the dark at room temperature)” value in data set [1] was “nh (No hydrolysis (<5% detected after 7 days))”. Besides, the “Fluo-4 calcium response after photoactivation (1PE)” value on TRPV1 channels (HEK 293 cells expressing TRPV1, 5 μM, 500 ms pulse of 405 nm light) was “EG was released”. Moreover, the “Fluo-4 calcium response … (2PE)” value at TRPV1 channels (HEK 293 cells expressing TRPV1, 5 μM, 500 ms pulse of 740 nm light) was “sufficient response”. Further, in data set [2], the ε365 is on record as 7540 M^–1 cm^–1 and the λmax is on record as 351 nm. Moreover, in data set [3] (pH 7.2, aqueous buffer), the solubility is more than 100 µM. Besides, the “t90% (time required to consume 90% of the starting material)” value in data set [4] was 19.5 s.
For the compound `C=CCc1ccc(OCc2ccc3ccc(O)c(C#N)c3n2)c(OC)c1` [CyHQ-EG, reference compound], the “Fluo-4 calcium response … (2PE)” value at TRPV1 channels (setting [6]) was “did not induce any response”.
On the same count and under the same terms, then `CCCCCCCCC(=O)NCc1ccc(OCc2ccc3ccc(O)c(C#N)c3n2)c(OC)c1` [CyHQ-VNA, reference compound], with “did not induce any response”.
As for `CCCCCCCCC(=O)NCc1ccc(O)c(OC)c1` [VNA, N-vanillyl-nonanoylamide, reference compound], the “relative potency as activator of TRPV1 channels (VNA versus EG)” value at TRPV1 channels (inferred from concentration and pulse duration needed for release, 405 nm) is “more potent activator of TRPV1 channels”.
Turning to `NCCc1ccc(O)c(O)c1` [dopamine, reference compound], in the data set with dLight 1.2 (100 μM, no photoactivation), the “dLight 1.2 response to bulk addition” value was “increase in fluorescence output”.

In general, solubility refers to how much of the substance goes into solution per volume.
